Values joined by “and” are separate entries in the source; they are usually repeats but may differ in a detail not shown here. Equal entries are not always repeated. Toxic doses and inconclusive results are not listed. No stated cut-off is given here; in the data, active means T/C of 150% or more; inactive means T/C below 125%.
Test system: L1210 leukemia ip in BDF1 mice, survival T/C
Assay: NCI In Vivo Anticancer Drug Screen. Data for tumor model L1210 Leukemia (intraperitoneal) in B6D2F1 (BDF1) mice
Conditions: endpoint: mean survival time, higher = longer survival
Method in brief: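 Antitumor effect is assessed in tumor-bearing animals. Survival in the compound arm is compared with a vehicle-dosed control arm and expressed as their quotient.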

[1] = dose: 50.0 mg/kg/injection, schedule: Q01DX001 (ip), vehicle: saline
[2] = dose: 100.0 mg/kg/injection, schedule: Q01DX001 (ip), vehicle: saline
[3] = dose: 200.0 mg/kg/injection, schedule: Q01DX001 (ip), vehicle: saline
[4] = dose: 400.0 mg/kg/injection, schedule: Q01DX001 (ip), vehicle: saline
[5] = dose: 100.0 mg/kg/injection, schedule: Q04DX003 (ip), vehicle: Klucel (hydroxypropylcellulose) (HPC)
[6] = dose: 100.0 mg/kg/injection, schedule: Q01DX009 (ip), vehicle: saline with Tween-80
[7] = dose: 200.0 mg/kg/injection, schedule: Q01DX009 (ip), vehicle: saline with Tween-80

Measured: T/C

CCSC(SCC)C(C)=O
inactive: [1] 92 % of control | [2] 108 % of control | [3] 94 % of control | [4] 89 % of control

O=C(CCCC(=O)N/N=C/c1ccc(Cl)cc1Cl)N/N=C\c1ccc(Cl)cc1Cl
inactive: [1] 97 % of control | [2] 97 % of control | [3] 93 % of control | [4] 97 % of control

CC(C)(Cl)/N=N/C(C)(C)Cl
inactive: dose: 25.0 mg/kg/injection, schedule: Q01DX001 (ip), vehicle: Klucel (hydroxypropylcellulose) (HPC) 99 % of control | dose: 25.0 mg/kg/injection, schedule: Q04DX003 (ip), vehicle: Klucel (hydroxypropylcellulose) (HPC) 98 % of control | dose: 50.0 mg/kg/injection, schedule: Q01DX001 (ip), vehicle: Klucel (hydroxypropylcellulose) (HPC) 92 % of control | dose: 50.0 mg/kg/injection, schedule: Q04DX003 (ip), vehicle: Klucel (hydroxypropylcellulose) (HPC) 97 % of control | dose: 100.0 mg/kg/injection, schedule: Q01DX001 (ip), vehicle: Klucel (hydroxypropylcellulose) (HPC) 94 % of control and 95 % of control | [5] 98 % of control

Cc1ccc(NS(=O)(=O)c2ccc(Cl)cc2)cc1Cl
inactive: dose: 25.0 mg/kg/injection, schedule: Q01DX009 (ip), vehicle: Klucel (hydroxypropylcellulose) (HPC) 94 % of control | dose: 50.0 mg/kg/injection, schedule: Q01DX009 (ip), vehicle: Klucel (hydroxypropylcellulose) (HPC) 99 % of control | dose: 100.0 mg/kg/injection, schedule: Q01DX009 (ip), vehicle: Klucel (hydroxypropylcellulose) (HPC) 96 % of control | [5] 106 % of control | dose: 200.0 mg/kg/injection, schedule: Q01DX009 (ip), vehicle: Klucel (hydroxypropylcellulose) (HPC) 99 % of control | dose: 200.0 mg/kg/injection, schedule: Q04DX003 (ip), vehicle: Klucel (hydroxypropylcellulose) (HPC) 96 % of control | dose: 400.0 mg/kg/injection, schedule: Q01DX009 (ip), vehicle: Klucel (hydroxypropylcellulose) (HPC) 88 % of control | dose: 400.0 mg/kg/injection, schedule: Q04DX003 (ip), vehicle: Klucel (hydroxypropylcellulose) (HPC) 100 % of control

O=C(CC1(O)C(=O)Nc2ccccc21)C12CC3CC(CC(C3)C1)C2 (stereo unspecified)
inactive: dose: 50.0 mg/kg/injection, schedule: Q01DX009 (ip), vehicle: saline with Tween-80 104 % of control | [6] 101 % of control | [7] 96 % of control

CN1C2CC(OC3CCCCO3)C(C2)N1C (stereo unspecified)
inactive: [6] 95 % of control | dose: 100.0 mg/kg/injection, schedule: Q04DX003 (ip), vehicle: saline with Tween-80 94 % of control | dose: 132.0 mg/kg/injection, schedule: Q04DX003 (ip), vehicle: saline with Tween-80 100 % of control | [7] 100 % of control | dose: 200.0 mg/kg/injection, schedule: Q04DX003 (ip), vehicle: saline with Tween-80 102 % of control | dose: 300.0 mg/kg/injection, schedule: Q04DX003 (ip), vehicle: saline with Tween-80 117 % of control | dose: 400.0 mg/kg/injection, schedule: Q01DX009 (ip), vehicle: saline with Tween-80 93 % of control | dose: 400.0 mg/kg/injection, schedule: Q04DX003 (ip), vehicle: saline with Tween-80 102 % of control

[O]=[Sn]1[O][Bi]([O][Sn](=[O])[O][Bi]2[O][Sn](=[O])[O]2)[O]1
inactive: dose: 100.0 mg/kg/injection, schedule: Q01DX009 (ip), vehicle: saline 94 % of control | dose: 200.0 mg/kg/injection, schedule: Q01DX009 (ip), vehicle: saline 94 % of control | dose: 400.0 mg/kg/injection, schedule: Q01DX009 (ip), vehicle: saline 92 % of control
